{"source": "paper PMC12522106", "about": "(Cancer Research Communications, 2025)", "key": {"[1]": {"test_system": "human and canine patient-derived sarcospheres", "test": "Resazurin metabolic activity of patient-derived sarcospheres, human and canine summarised together", "assay_type": "cell-based", "conditions": "48 h, the other patient samples, read-out: ED50s of romidepsin-resistant patient samples", "from_the_text": "Osteosarcoma tissue was obtained during standard-of-care procedures (biopsies or resections) in human patients treated at Indiana University Health and Riley Children’s Hospital with Institutional Review Board approval (#1501467439). Tissue from canine patients with osteosarcoma was obtained from standard-of-care amputations at the Purdue University College of Veterinary Medicine and the Metropolitan Veterinary Hospital. Osteosarcoma diagnosis was confirmed by review of pathology reports. Demographic and clinical information for human and canine patients is in Table 1. Primary osteosarcoma cells were isolated by collagenase/mechanical dispersion using a modification of a previously described protocol ([35]). […] The tissue was rinsed with cold PBS (Cytiva, cat. #SH30028.02) and minced prior to incubation in 10 mL of culture media containing collagenase type II (750 units/mL with 13–18 units of clostripain/mL, Worthington, cat. #LS004176) for 3 hours at 37°C and 5% CO2. The media and tissue fragments were centrifuged at 200 g for 5 minutes. […]\nThe number of patient-derived cells required to obtain sarcospheres with 400-μm diameters was determined for each patient and varied from 1,000 to 15,000 cells per sarcosphere. […]"}, "LM7 sarcospheres [2]": {"test_system": "LM7 sarcospheres", "test": "Sarcosphere resazurin metabolic activity (initial and secondary screens)", "assay_type": "cell-based, human", "conditions": "secondary screen; without MAP", "protocol": "(§1) Khanna DVM, PhD (NCI). […] Medium was sterile filtered before use.\n(§2) Highly metastatic osteosarcoma cells cultured in monolayers at 50% to 80% confluence were lifted with Accutase (Innovative Cell Technologies, Inc., cat. #NC9839010), resuspended in media, and diluted to the desired concentration. […] Following cell seeding, plates were centrifuged (1,000 g for 10 minutes at 4°C) and then incubated at 37°C with 5% CO2. […] Then, 100 μL drug treatment or vehicle was added to each well. […] Resazurin reduction on day 2 by vehicle-treated sarcospheres was compared with resazurin reduction on day 0 to calculate sarcosphere growth without drug over 2 days in selected experiments.\n(§3) Plates were incubated at 37°C in 5% CO2 for 2 or 6 hours.\n(§4) Sarcospheres were matured for 24 hours and then treated for 48 hours with media containing 10 µmol/L of each drug and 0.1% DMSO. […] Growth inhibition represents a more clinically translatable measure for screening studies in which a value of 0% represents stable disease since the start of treatment, values of 0% to 100% represent progression in which 100% is the untreated control, and values less than 0% represent regression in which −100% represents blank wells without sarcospheres."}, "[3]": {"test_system": "sarcospheres derived from 143B, MG63.3-GFP, and LM7 cell lines", "test": "Sarcosphere resazurin metabolic activity, results stated across all three cell lines", "assay_type": "cell-based, human", "conditions": "with and without MAP; vs belinostat, panobinostat, vorinostat, AR-42, resminostat", "protocol": "as §1, §2, §3, §4"}, "[4]": {"test_system": "LM7 cell–derived lung metastases", "set-up": "method as in PMID 32599665", "conditions": "administration continued for the entire 21-week observation period; cited from earlier work"}, "143B sarcospheres": {"test_system": "143B sarcospheres", "test": "Cell cycle analysis by flow cytometry (DAPI)", "assay_type": "cell-based, human", "conditions": "10 nmol/L for 24 hours", "protocol": "(§5) Sarcospheres were washed with PBS to remove any media and then resuspended in Accumax Cell Detachment Solution ([…] Technologies, #07921) for 15 to 30 minutes. Sarcospheres were manually dissociated by pipetting up and down at least 10 times. Following dissociation, cells were fixed in Cytofix/Cytoperm (BD Cytofix/Cytoperm Fixation/Permeabilization Solution Kit, BDB554714) for 10 to 20 minutes at 4°C protected from light. Fixation solution was removed with two washes in sterile PBS. Cells were resuspended in PBS and stored for no more than 72 hours at 4°C. Cells were transferred to flow cytometry tubes for staining. For DAPI staining, 1 mg/mL DAPI (BD Pharmingen, #564907) was diluted 1000-fold in sterile PBS and 500 μL was added to the appropriate tubes containing an equal volume of cell suspension. Flow cytometry was performed using a BD LSRFortessa X-20 flow cytometer using a 407 laser. Cell cycle analysis was performed using the Watson model in FlowJo software (version 10.10.0)."}, "LM7 sarcospheres [5]": {"test_system": "LM7 sarcospheres", "test": "Cell cycle analysis by flow cytometry (DAPI)", "assay_type": "cell-based, human", "conditions": "10 nmol/L for 24 hours", "protocol": "as §5"}, "[6]": {"test_system": "murine K7M2 osteosarcoma cells", "set-up": "method as in PMID 32599665", "conditions": "compared with LM7 model; cited from earlier work"}}}
{"smiles": "C/C=C1\\NC(=O)[C@H]2CSSCC/C=C/[C@H](CC(=O)N[C@H](C(C)C)C(=O)N2)OC(=O)[C@H](C(C)C)NC1=O", "note": "[romidepsin]", "values": [{"measurement": "EC50", "setting": "[1]", "result": "> 1", "unit": "µM"}, {"measurement": "rank of ED50 among the 13 drugs", "setting": "LM7 sarcospheres [2]", "result": "lowest ED50"}, {"measurement": "rank of ED50s among tested HDIs", "setting": "[3]", "result": "lowest ED50s"}, {"measurement": "growth of lung metastases", "setting": "[4]", "result": "prevented"}, {"measurement": "cell cycle block", "setting": "143B sarcospheres", "result": "induced a G2–M cell cycle block"}, {"measurement": "proportion of sub-G1 cells", "setting": "143B sarcospheres", "result": "without altering the proportion of sub-G1 cells"}, {"measurement": "cell cycle block", "setting": "LM7 sarcospheres [5]", "result": "without inducing a cell cycle block"}, {"measurement": "proportion of sub-G1 cells", "setting": "LM7 sarcospheres [5]", "result": "increased the proportion of sub-G1 cells"}, {"measurement": "effect on lung metastases", "setting": "[6]", "result": "less effect"}]}
